Experimental data published in ChEMBL document CHEMBL1275484, “Rifampin and rifaximin resistance in clinical isolates of Clostridium difficile” (Antimicrob Agents Chemother, 2008).

What was measured:
Clostridioides difficile = experiment: Antimicrobial activity against Clostridium difficile clinical isolate obtained from patient after completion of two courses of drug treatment; type: functional
[1] = Drug level in diarrhea patient feces at 400 mg, po every 12 hrs for 3 days; type: ADME, organism-based; details: human, read-out: Drug uptake

MIC (Clostridioides difficile): > 256 µg/mL
concentration at 3 days [1]: 8e+06 ng/g
Compound: CO[C@H]1/C=C/O[C@@]2(C)Oc3c(C)c(O)c4c(O)c(c5c(nc6cc(C)ccn65)c4c3C2=O)NC(=O)/C(C)=C\C=C\[C@H](C)[C@H](O)[C@@H](C)[C@@H](O)[C@@H](C)[C@H](OC(C)=O)[C@@H]1C [RIFAXIMIN]
